Reference: ChEMBL document CHEMBL1138336, “Design and synthesis of novel and potent amide linked PPARgamma/delta dual agonists” (Bioorg Med Chem Lett, 2007)

What was measured:
[1] = target: T1, Peroxisome proliferator-activated receptor alpha (Homo sapiens, UniProt Q07869)
T1 sequence (Q07869 whole entry): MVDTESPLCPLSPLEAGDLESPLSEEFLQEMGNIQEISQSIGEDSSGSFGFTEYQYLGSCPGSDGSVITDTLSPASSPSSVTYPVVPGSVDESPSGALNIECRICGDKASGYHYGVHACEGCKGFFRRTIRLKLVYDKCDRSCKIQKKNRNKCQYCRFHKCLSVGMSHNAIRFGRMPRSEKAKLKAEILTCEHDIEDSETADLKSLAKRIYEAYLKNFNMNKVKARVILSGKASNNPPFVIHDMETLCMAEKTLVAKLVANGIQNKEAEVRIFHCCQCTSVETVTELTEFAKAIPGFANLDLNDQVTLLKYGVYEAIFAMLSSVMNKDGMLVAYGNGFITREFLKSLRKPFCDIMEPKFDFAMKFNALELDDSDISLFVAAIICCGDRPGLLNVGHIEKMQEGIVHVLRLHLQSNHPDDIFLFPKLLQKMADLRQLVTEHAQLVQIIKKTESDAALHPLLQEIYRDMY

[2] = target: T2, Peroxisome proliferator-activated receptor delta (Homo sapiens, UniProt Q03181)
T2 sequence (Q03181 whole entry): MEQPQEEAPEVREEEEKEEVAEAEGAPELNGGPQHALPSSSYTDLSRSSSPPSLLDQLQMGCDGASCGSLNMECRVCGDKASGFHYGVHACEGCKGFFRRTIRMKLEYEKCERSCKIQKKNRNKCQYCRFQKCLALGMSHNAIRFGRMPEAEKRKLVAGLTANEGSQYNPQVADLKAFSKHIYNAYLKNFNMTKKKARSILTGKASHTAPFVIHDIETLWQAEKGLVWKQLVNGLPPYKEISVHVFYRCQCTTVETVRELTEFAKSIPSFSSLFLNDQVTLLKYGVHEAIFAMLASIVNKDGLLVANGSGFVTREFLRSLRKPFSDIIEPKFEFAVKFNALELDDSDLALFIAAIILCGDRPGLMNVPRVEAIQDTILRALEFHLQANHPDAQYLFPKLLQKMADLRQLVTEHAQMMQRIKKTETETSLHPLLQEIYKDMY

[3] = target: T1, Peroxisome proliferator-activated receptor alpha; remark: listed apart in the source
[4] = target: T2, Peroxisome proliferator-activated receptor delta; remark: listed apart in the source
Rattus norvegicus = species on record: Rattus norvegicus; experiment: animal or person; format: functional; details: ZDF, po, 168 h

| SMILES | IC50 [1] [nM] | IC50 [2] [nM] | EC50 [3] [nM] | EC50 [4] [nM] | ED50 (Rattus norvegicus) [mg/kg] |
| --- | --- | --- | --- | --- | --- |
| Cc1cc(Oc2cccc(CNC(=O)c3c(C)c4cc(Cl)ccc4n3C)c2)ccc1CCC(=O)O | > 10000 | 3 | 2650 | 4 |  |
| CCc1cc(Oc2cc(F)cc([C@@H](C)NC(=O)c3c(C)c4cc(Cl)ccc4n3C)c2)ccc1CCC(=O)O | 10300 |  | 2820 |  | 0.82 |
| Cc1cc(Oc2cccc(CNC(=O)c3cc4cc(Cl)ccc4n3C)c2)ccc1CCC(=O)O | > 10000 | 3 | 2740 | 87 |  |

Now from value to compound, other results behind:

| IC50 [1] [nM] | IC50 [2] [nM] | EC50 [3] [nM] | EC50 [4] [nM] | SMILES | ED50 (Rattus norvegicus) [mg/kg] |
| --- | --- | --- | --- | --- | --- |
| > 10000 | 5 | 2890 | 33 | Cc1cc(Oc2cccc(CNC(=O)c3ccc(C(F)(F)F)cc3C)c2)ccc1CCC(=O)O |  |
| 9340 |  |  |  | CCc1cc(Oc2cc(F)cc([C@@H](C)NC(=O)c3sc4ccc(Cl)cc4c3C)c2)ccc1CCC(=O)O |  |
